From US20230075822A1, “USE OF CASTALAGIN OR ANALOGS THEREOF FOR ANTI-CANCER EFFICACY AND TO INCREASE THE RESPONSE TO IMMUNE CHECKPOINT INHIBITORS” (THE ROYAL INSTITUTION FOR THE ADVANCEMENT OF …, priority 2020, published 2023) come the findings set out here.

The test system of assay [1] is CD8^+ T cells. As to the kind of experiment: Flow cytometry immune profiling of TILs, MCA-205 tumor model. It is filed as in vivo, C57BL/6 mice. Particulars: SPF mice, castalagin experiment. As to the method: FIGS. 7A-C are graphs showing the results of immune cell profiling by flow cytometry in the murine MCA-205 (FIGS. 7A-B) or E0771 (FIG. 7C) tumor model treated with anti-PD-1 and/or CC. The tumors and the spleens were harvested 9 days or 19 days after the first injection of anti-PD-1 mAb into mice bearing MCA-205 or E0771 tumors, respectively. Excised tumors were cut into small pieces and digested in RPMI medium containing Liberase 25 μg/mL (Roche) and DNase1 at 150 Ul/mL (Roche) for 30 minutes at 37° C. and then crushed and filtered twice using 100 and 70 μm cell strainers (Becton & Dickinson). Spleens were crushed in RPMI medium and subsequently filtered through a 100 μm cell strainer. Two million tumor cells or splenocytes were pre-incubated with purified anti-mouse CD16/CD32 (clone 93; eBioscience) for 30 minutes at 4° C., before membrane staining (CD45, CD3, CD4, CD8, PD1, PDL1, ICOS, CXCR3, CCR9, CD45RB, CD62L, CD44). For intracellular staining, the Foxp3 staining kit (eBioscience) was used. Dead cells were excluded using the Live/Dead Fixable aqua blue dead cell stain kit (Life Technologies). […] FIG. 7C is a graph showing the activation of intratumoral CD8^+ T cells (as assessed by MFI of ICOS^+CD8^+ T cells by flow cytometry) in TILs in the E0771 tumor model post-treatment with CC +/−αPD-1. […]
Background: A flow cytometer gives signals particle by particle.

Assay [2] deals with CD8^+/Foxp3^+CD4^+ T cells. As to the kind of experiment: Immunofluorescence staining (CD4, CD8, Foxp3) of MCA-205 tumors. It is filed as in vivo, C57BL/6 mice. To be noted: castalagin/IsoPD-1 relative to Water/IsoPD-1. From the text:
FIG. 10B Representative images for the CD4, CD8 and Foxp3 immunofluorescence staining of tumors in both water/ISoPD-1 and castalagin/IsoPD-1 groups. FIG. 10C Box plot for the ratio CD8^+/Foxp3^+CD4^+ in tumor in (n=8/group) obtained with immunofluorescence staining. *p<0.05. Immunofluorescence staining. Murine tumors preserved in optimal cutting temperature (OCT) compound were cut (5 μm-thick sections) and adhered to microscope slides and stored at −80C°. Upon the start of the experiment, slides were air dried and washed with cold acetone. To prevent non-specific binding to biotin, the Endogenous Avidin Biotin Blocking kit (ThermoFisher) was used. Additionally, tissues were incubated with 10% donkey serum in order to reduce background staining. Primary antibodies used are anti-CD4, anti-CD8, anti-Foxp3. Donkey anti-goat and donkey anti-rat conjugated to AF-488 were used as secondary antibodies and slides were incubated with Cy3-Streptavidin to detect biotinylated antibodies. Nuclei were visualized by counterstaining with DAPI (ThermoFisher). Images were generated using the whole slide scanner Olympus BX61VS (20× 0.75NA objective with a resolution of […]). The images were analysed using Visiomorph software (Visiopharm).

As to `O=C1OC[C@H]2OC(=O)c3cc(O)c(O)c(O)c3-c3c(O)c(O)c(O)c4c3C(=O)O[C@H]([C@H]3OC(=O)c5c-4c(O)c(O)c(O)c5[C@@H]3O)[C@@H]2OC(=O)c2cc(O)c(O)c(O)c2-c2c1cc(O)c(O)c2O` [castalagin, Castalagin], in assay [1], the “TCM CD8^+ T cells (CD45RB^−CD62L^+) in TILs” value is “upregulation of Tom CD8^+ T cells”. In assay [2], the “ratio CD8^+/Foxp3^+ CD4^+ in tumor (immunofluorescence)” value is reported as “increase of the ratio CD8^+/Foxp3^+ CD4^+”.
